Laboratory results taken from patent US12606543B2, “Indole derivatives as serotonergic agents useful for the treatment of disorders related thereto” (priority 2023, dated 2026).
Like-named read-outs stand apart in the source and are kept apart here.

Assays:
[1] = target: T1, human 5-hydroxytryptamine receptor 2A (5-HT2A) (Homo sapiens, UniProt P28223); assay: Human 5-HT2A functional FLIPR assay (agonist mode); assay type: cell-based; set-up: expressed in transfected cells; host or cells: Flp-In-293 (HEK293); settings: for RFU@10 μM: normalized fluorescence reading (Fmax−Fmin) at 10 μM, curve fitting with activation (%)
Procedure: The potential excitatory effects of compounds targeting human 5-hydroxytryptamine receptor 2A (5-HT2A) under agonist mode was assessed.
HTR2A&Gα15-HEK293 cells were cultured in DMEM medium containing 10% dialyzed FBS and 1× penicillin-streptomycin, 100 μg/mL Hygromycin B and 300 μg/mL G418. The cells were passaged about three times a week, maintained between ˜30% to ˜90% confluence.
2. For induction, 1 μg/ml tetracycline (final concentration) was added to cell culture medium and incubated for 48 hours prior to seeding cells into plate at 37° C., 5% (v/v) CO2. The cell culture medium was removed from flask. Cells were washed with DP BS.
9. 30 μL/well cell suspensions added into a 384-well cell plate (The cell density was 20,000 cells/well).
10 μL of assay buffer (20 mM HEPES, in 1×HBSS, pH 7.4) was added to each well of the cell plate.
2× dye solution was prepared following the manual of the FLIPR® Calcium 6 Assay Kit: • i. The dye was diluted with assay buffer. • ii. Probenecid was added to the final concentration of 5 mM. • iii. Vortexed vigorously for 1-2 minutes.
4. 10 μL of 2× dye solution was added to each well of the cell plate
6. The plate was incubated at 37° C. for 2 hours followed by an additional 15-minute incubation at 25° C.
1. Serotonin HCl was prepared to the concentration of 10 mM with DMSO.
2. The test compounds were prepared to the concentration of 10 mM with DMSO.
4. 3-folds serial dilutions were performed with DMSO.
5. 90 nL/well of serial diluted compounds was transferred from source plate to a 384-well compound plate by using an Echo.
6. 30 μL/well of assay buffer (20 mM HEPES in 1×HBSS, pH 7.4) was added to the compound plate.
2. 10 μL of 3× compounds transferred from the compound plate to the cell plate by FLIPR.
3. The plate was read for 160 sec with 1 sec interval and the data of agonist mode was obtained.
1. The normalized fluorescence reading (RFU) was calculated as shown below, wherein Fmax and Fmin stand for maximum and minimum of calcium signal during defined time window:
2. EC50 by fitting RFU against log of compound concentrations with Hill equation was calculated using XLfit.
2. 10 μL of assay buffer (20 mM HEPES, in 1×HBSS, pH 7.4) was added to each well of the cell plate.
3. 2× dye solution was prepared following the manual of the FLIPR® Calcium 6 Assay Kit: • i. The dye was diluted with assay buffer. • ii. Probenecid was added to the final concentration of 5 mM. • iii. Vortexed vigorously for 1-2 minutes.
1. The normalized fluorescence reading (RFU) was calculated as shown below, wherein Fmax and Fmin stand for maximum and minimum of calcium signal during defined time window: RFU=Fmax−Fmin

[2] = target: T1, human 5-hydroxytryptamine receptor 2A (5-HT2A); assay: biochemical; assay type: binding
Procedure: The objective of this study was to evaluate the binding properties of exemplary compounds of Formula (I) on 5-hydroxytryptamine receptor 2A (5-HT2A).
1. The assay buffer was prepared following Table 17 below.
2. 8 doses of reference and test compounds starting from 10 mM stock solution as required were prepared by 5-fold serial dilutions with 100% (v/v) DMSO.
3. UniFilter-96 GF/B plate was pretreated: • i. 50 μl/well of 0.5% (v/v) PEI was added to UniFilter-96 GF/C plates. The plates were sealed and incubated at 4° C. for 3 hours (hrs). • ii. After incubation, the plates were washed 3 times with ice-cold wash buffer (50 mM Tris, pH7.4).
4. The assay plate was prepared: • i. Cell membrane was diluted with assay buffer and 330 μl/well was added to 96 round deep well plates to reach a concentration of 20 μg/well. • ii. 8 concentrations of reference or test compounds were prepared and 110 μl/well was added to 96 round deep well plates. • iii. [3H]-ketanserin was diluted with assay buffer to 5 nM (5× final concentration) and 110 μl/well was added to 96 round deep well plates.
5. The plate was centrifuged at 1000 rpm for 30 seconds (secs) and then agitated at 600 rpm at room temperature for 5 min.
6. The plates were sealed and the plate incubated at 27° C. for 90 min.
7. The incubation was stopped by vacuum filtration onto GF/B filter plates followed by 4 times washing with ice-cold wash buffer (50 mM Tris, pH7.4).
8. The filter plates were sealed and 40 μl/well of scintillation cocktail was added.
10. The plate was read by using a Microbeta^2 microplate counter.
1. For reference and test compounds, the results were expressed as % Inhibition, using the normalization equation: N=100−100×(U−C2)/(C1−C2), where U is the unknown value, C1 is the average of high controls, and C2 is the average of low controls.
2. The IC50 was determined by fitting percentage of inhibition as a function of compound concentrations with Hill equation using XLfit. […]
9. The filter plates were sealed and 40 μl/well of scintillation cocktail was added.

human 5-HT2A receptor = target: T2, human 5-HT2A receptor (Homo sapiens, UniProt P28223); assay: Human 5-HT2A β-arrestin reporter assay; assay type: cell-based; settings: for Emax (% of serotonin): U2OS cells, relative to maximum response of serotonin
T2 construct: expressed in transfected cells; host or cells: U2OS
Procedure: Compound potency (EC50) and efficacy (Max response) against the human 5-HT2A receptor in stably transfected U2OS cells were determined in a G protein-coupled receptors (GPCR) cell based β-arrestin reporter assay.
(§1) Cells were seeded in a total volume of 20 μL into white walled, 384-well microplates and incubated at 37° C. overnight before analysis. For agonist determination, cells were incubated with samples to induce response. Intermediate dilution of sample stocks was performed to generate 5× samples in assay buffer. 5 μL of 5× samples were added to cells and incubated at 37° C. for 120 minutes. The final assay vehicle concentration was 1%. The results are expressed as percent efficacy relative to the maximum response of the control ligand (serotonin) in Table 10.
Compound potency (EC50) and efficacy (Max response) against the human 5-HT2A receptor in stably transfected U2OS cells was determined in a GPCR cell based β-arrestin reporter assay.
as §1, with “with sample” for “with samples”, “120 mins.” for “120 minutes.”, “Table 48.” for “Table 10.”

[3] = β-arrestin reporter, stably transfected U2OS cells, 120 min, read-out: EC50

T1 sequence (P28223 whole entry): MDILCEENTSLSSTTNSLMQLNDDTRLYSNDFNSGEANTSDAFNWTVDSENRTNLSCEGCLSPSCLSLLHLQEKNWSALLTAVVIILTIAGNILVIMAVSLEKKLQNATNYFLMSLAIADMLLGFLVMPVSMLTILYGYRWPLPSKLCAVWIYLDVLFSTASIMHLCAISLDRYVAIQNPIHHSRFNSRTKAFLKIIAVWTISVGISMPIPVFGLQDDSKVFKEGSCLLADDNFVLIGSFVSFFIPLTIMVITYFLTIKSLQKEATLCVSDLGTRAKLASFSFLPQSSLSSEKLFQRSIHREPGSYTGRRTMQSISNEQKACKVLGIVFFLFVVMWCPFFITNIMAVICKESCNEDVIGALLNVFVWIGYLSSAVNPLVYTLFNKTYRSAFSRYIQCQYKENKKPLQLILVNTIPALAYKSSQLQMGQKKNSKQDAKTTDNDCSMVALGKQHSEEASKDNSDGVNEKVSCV
T2 sequence (P28223 whole entry): as above

Row | Structure (SMILES) | EC50 [1] | RFU@10 μM [1] | IC50 [2] | EC50 (human 5-HT2A receptor) | Emax (% of serotonin) (human 5-HT2A receptor; β-arrestin reporter) | EC50 (human 5-HT2A receptor; [3]) | EC50 ([1]; FLIPR calcium, agonist mode, HTR2A&Gα15-HEK293 cells, read-out: h5-HT2A, EC50) | IC50 ([2]; [3H]-ketanserin displacement, cell membrane, 27° C., 90 min, read-out: h5-HT2A, IC50)
1 | [2H]C([2H])(c1c[nH]c2ccc(OCCCCCN3C(=O)C4CCCCC4C3=O)cc12)[C@H]1CCCN1C([2H])([2H])[2H] (mixture of isomers) [Rac (R) I-248] | 54 nM | 8,240 RFU | 310 nM |  |  |  |  | 
2 | CSc1ccc2[nH]cc(C[C@H]3CCCN3C)c2c1 [(R) I-1, (R)-3-((1-Methylpyrrolidin-2-yl)methyl)-5-(methylthio)-1H-indole] | 47 nM | 5,663 RFU | 154 nM | 25.4 nM | 79.27 % of serotonin |  |  | 
3 | COCCN1CCC[C@@H]1Cc1c[nH]c2ccc(OC)cc12 [(R) I-98, (R)-5-Methoxy-3-((1-(2-methoxyethyl)pyrrolidin-2-yl)methyl)-1H-indole] | 13 nM | 8,298 RFU | 350 nM |  | 81.67 % of serotonin | 25.8 nM |  | 
4 | [2H]C([2H])(c1c[nH]c2ccc(OCCCCN3C(=O)c4ccccc4C3=O)cc12)[C@H]1CCCN1C([2H])([2H])[2H] [(R) I-244, (R)-2-(4-((3-((1-(Methyl-d3)pyrrolidin-2-yl)methyl-d2)-1H-indol-5-yl)oxy)butyl)isoindoline-1,3-dione] | 50 nM | 7,945 RFU | 129 nM |  | 79.58 % of serotonin | 6.71 nM |  | 
5 | [2H]C([2H])(c1c[nH]c2ccc(OCCCCCN3C(=O)c4ccccc4C3=O)cc12)[C@H]1CCCN1C([2H])([2H])[2H] [(R) I-245, (R)-2-(5-((3-((1-(Methyl-d3)pyrrolidin-2-yl)methyl-d2)-1H-indol-5-yl)oxy)pentyl)isoindoline-1,3-dione] | 120 nM | 8,322 RFU | 225 nM |  | 82.18 % of serotonin | 28.4 nM |  | 
6 | [2H]C([2H])(c1c[nH]c2ccc(OCCCCCN3C(=O)[C@H]4CCCC[C@H]4C3=O)cc12)[C@H]1CCCN1C([2H])([2H])[2H] [Cis (R) I-248, 2-(5-((3-(((R)-1-(Methyl-d3)pyrrolidin-2-yl)methyl-d2)-1H-indol-5-yl)oxy)pentyl)hexahydro-1H-isoindole-1,3(2H)-dione] |  |  |  |  | 84.4 % of serotonin | 112 nM |  | 
7 | CN(C)CCc1c[nH]c2ccccc12 [DMT] |  | 3,493 RFU |  |  | 38.86 % of serotonin | 114 nM | 163 nM | 954 nM
